Experiments:
Assay type in all cases: cell-based, human
A172 (glioblastoma) = assay: Study 2: cell viability (CellTiter-Glo) in DMEM without sodium pyruvate; settings: increase in BOHB concentration (0, 4, 12 mM), no pyruvate, 3 d
Description: (§1) Cell lines established from human colon carcinoma (HCT15, NCI-H508 and COLO205), renal cell carcinoma (769-P, 786-O and RCC4) and glioblastoma (LN-18, A-172 and U-118 MG) were selected for the analysis. All cell lines were obtained from American Type Culture Collection (ATCC, LGC standards, UK) except for RCC4 and HCT15 that was purchased from Sigma-Aldrich (Merck, Germany). In addition, primary human renal cell carcinoma (RCC) cells isolated from patient nephrectomies were included in the study. The culture conditions were as recommended by American Type Culture Collection (ATCC) were followed, that is to grow cells in DMEM medium with the addition of 1 mM sodium pyruvate, which was also added to the RPMI-1640 medium in order to keep the conditions more similar 769-P, RCC4, LN-18, A-172, U-118 MG and the primary RCC cells were cultured in DMEM high glucose medium, while 786-O HCT15, NCI-H508 and COLO205 were cultured in RPMI-1640 medium according to the recommendations from ATCC. […]
(§2) CellTiter-Glo Luminescent cell viability assay (Promega) was used as a readout of viability.
(§3) For each cell line, optimal number of cells as determined above were seeded into 96-well plates on day 0. […] After 3d incubation in test condition medium, with daily medium changes, cell viability was determined using the CellTiter-Glo viability test. […]

[1] = test system: RCC4 (renal cell carcinoma); assay: as above; settings: increase in BOHB concentration (0, 4, 12 mM), no pyruvate, 3 d
Description: as §1, §2, §3

glioma cell line U118MG = assay: Example 2: culture in Medium A-C with BOHB and/or Acac (CellTiter-Glo)
Description: (§4) The ketone bodies acetoacetate (Acac), BOHB and acetone are produced by the liver during fasting or starvation. BOHB is the major ketone body in mammals, while Acac constitutes around 20%.
(§5) Cells were maintained in RPMI-1640 medium (31870-025 GIBCO) with the addition of 10% serum, 200 mM L-glutamine and 1% penicillin-streptomycin (PEST) in humidified chambers at 37° C. and 5% CO2. For hypoxic conditions (5% O2), cells were maintained in a Galaxy 14 S CO2 incubator (Eppendorf) where N2 was used to adjust the O2 level to 5%.
(§6) Medium B and C were prepared from RPMI1640 modified medium powder without L-glutamine, glucose and amino acids (R9010-01, US Biological Life Sciences). For 1L medium, 7.4 g powder was dissolved in 900 ml sterile water without heating and 2 g sodium bicarbonate was added. Amino acids listed in Table 5 were added to the same concentration as in full RPMI1640 medium (Table 5). After all additions, the medium was sterilized by filtering through 0.22 um membranes and divided into two bottles.
(§7) To model Cancer Dialysis conditions in Medium C, the levels of these nutrients were reduced to 50% of the physiological levels. As for Medium A, 1% PEST and 10% dialyzed serum were added to Medium B and C. Sodium pyruvate, that is a common addition in cell culture medium, was not present in any of the used media.
(§8) Stock solutions of DL-β-Hydroxybutyric acid sodium salt (H6501, Sigma Aldrich) and Lithium Acetoacetate (A8509, Sigma Aldrich) were prepared in water, sterile filtered, aliquoted and stored at −20° C. Lithium Chloride (L7026, Sigma Aldrich) was used as a control for the addition of Lithium in the Li-Acac.
(§9) CellTiter-Glo Luminescent cell viability assay (Promega) was used as a readout of cell numbers according to the manufacturers' instructions. In experiments shown in FIG. 7-8, double plates were seeded and treated. One set of plates was used for collection of medium for lactate measurement (see below) and the CellTiterGlo-assay. The other set of plates was frozen at −80° C. at the end of the experiment. The frozen plates were intended for the CyQuant cell proliferation assay (Thermo Fisher) that measures the amount of DNA per well. Analysis of the amounts of cells by both CellTiterGlo and CyQuant assays would ensure that effects of the culture conditions on viability or growth rate would not be concealed by simultaneous changes in ATP-levels per cell.
(§10) Next, it was decided to also include Acac in the study and analyze the viability of cells cultured in the presence of BOHB and Acac alone or in combination in Medium A-C. The experiment was performed at 21% and 5% O2. The experiments were made with glioma cell lines A172 and U118MG.
(§11) Being a chiral molecule, BOHB exists as two enantiomers, D-and L-BOHB. D-BOHB is normally produced and metabolized in humans. The BOHB-salt used in this study contains a mixture of 50:50 of D-and L-BOHB. In order to ensure a high presence of the active D-form, the total concentration of BOHB added was increased to 16 mM, giving a level of 8 mM D-BOHB. To keep the total concentration of active ketones constant, 8 mM Acac was used, and for the combination of both ketones, the levels were adjusted to 4 mM Acac and 8 mM BOHB (containing 4 mM D-BOHB).
(§12) The Acac available for in vitro use is in the form of a lithium salt. Since lithium itself can affect the viability of cancer cells [Cohen-Harazi et al., Anticancer Res 2020; 40:3831-3837], 8 mM LiCl was used as a control for the 8 mM Acac data point and 4 mM LiCl was used as a control for the 4 mM Acac/8 mM BOHB data.

glioma cell line A172 = assay: as above; settings: for growth: normoxic, combined experiment 2-6, 16 mM BOHB or 8 mM Acac added separately, FIG. 9
Description: as §4, §5, §6, §7, §8, §9, §10, §11, §12

RCC4 renal carcinoma = assay: Example 2: growth in Medium A-C with or without ketones (CellTiter-Glo); settings: nutrient restricted Medium C, FIG. 11
Description: To study the effect of a nutrient restricted ketogenic environment on cancer cell growth in vitro, three different cell culture media were formulated. Medium A was full RPMI1640 medium that the cell lines routinely are cultured in. Medium B was used as an approximation of the conditions found in normal human serum. The levels of glucose, glutamine, serine, glycine and arginine were adjusted to match normal physiological levels found in human serum. These nutrients were selected based on their reported use as energy source and effects on cancer cell metabolic state. Medium C was used to emulate the ketogenic nutrient restricted Cancer Dialysis condition. Here, the levels of the selected nutrients were reduced to half of the physiological levels in Medium B, and the ketone body BOHB was added. […]
All cell lines were purchased from ATCC (ATCC, LGC standards) except for RCC4 that was from Sigma-Aldrich (Merck). […] Optimal seeding density was determined for each cell line in 96-well plates cultured for 3 days in standard cell culture medium. […]
In Medium B, to mimic physiological conditions, the levels of glutamine, serine, glycine, arginine and glucose were set to the median of measured levels in human serum, based on data from the Mayo Clinic Laboratories (https://www.mayocliniclabs.com/test-catalog/Clinical+and+Interpretive/9265). […]

[2] = Medium A, normoxia and hypoxia, 16 mM BOHB alone
[3] = Medium C, 21 and 5% O2, 16 mM BOHB
[4] = Medium A, normoxia and hypoxia, 8 mM Acac compared to 8 mM LiCl control
[5] = Medium B, 21% O2, 8 mM Acac compared to 8 mM LiCl control
[6] = Medium C, 8 mM Acac alone compared to 8 mM LiCl control

| Structure (SMILES) | proliferation of cells (cell viability) (A172 (glioblastoma)) | proliferation of cells (cell viability) [1] | growth inhibitory effect (glioma cell line U118MG; [2]) | number of cells, % compared to C-medium without BOHB (glioma cell line U118MG; [3]) | growth inhibitory effect (glioma cell line A172; [2]) | number of cells, % of the amount in Medium B without BOHB (glioma cell line A172; Medium B, hypoxia, 16 mM BOHB) | number of cells, % compared to C-medium without BOHB (glioma cell line A172; [3]) | growth (glioma cell line A172; Medium C) | increased sensitivity to high levels of ketones (RCC4 renal carcinoma) | number of cells (glioma cell line U118MG; [4]) | number of cells (glioma cell line U118MG; [5]) | amounts of cells (glioma cell line U118MG; [6]) | number of cells (glioma cell line A172; [4]) | number of cells (glioma cell line A172; [5]) | amounts of cells (glioma cell line A172; [6]) |
| --- | --- | --- | --- | --- | --- | --- | --- | --- | --- | --- | --- | --- | --- | --- | --- |
| CC(O)CC(=O)[O-].[Na+] (racemic) [BOHB, DL-β-Hydroxybutyric acid sodium salt] | suppresses the proliferation of cells | suppresses the proliferation of cells | no growth inhibitory effect | around 30% | no growth inhibitory effect | approximately 70% | around 30% | trend of reduced growth | not found |  |  |  |  |  |  |
| CC(=O)CC(=O)[O-].[Li+] [Acac, Lithium Acetoacetate] |  |  |  |  |  |  |  | trend of reduced growth |  | did not reduce the number of cells further | reduced the number of cells significantly | did not significantly reduce the amounts of cells | did not reduce the number of cells further | reduced the number of cells significantly | did not significantly reduce the amounts of cells |
